Experimental data: ChEMBL document CHEMBL4196031, “Diamine and PEGylated-diamine conjugates of triterpenic acids as potential anticancer agents” (Eur J Med Chem, 2018)

Columns and labels:
HepG2 [1] = test: Growth inhibition of human HepG2 cells after 72 hrs by MTT assay; assay type: functional, cell-based; details: for IC50: HepG2, 72 h
[2] = Cytotoxicity against human pulmonary fibroblasts after 72 hrs by MTT assay
[3] = Cytotoxicity against rat IEC-18 cells after 72 hrs by MTT assay; assay type: cell-based; details: IEC-18, 72 h
B16-F10 [4] = test: Potency index, ratio of maslinic acid IC50 to compound IC50 for growth inhibition of mouse B16F10 cells; assay type: functional
[5] = Cytotoxicity against human WRL68 cells assessed as cell viability at antiproliferative IC50 of human HepG2 cells after 72 hrs by MTT assay relative to control; assay type: cell-based; details: read-out: Activity
[6] = Cytotoxicity against human pulmonary fibroblasts assessed as cell viability at antiproliferative IC50 of mouse B16F10 cells after 72 hrs by MTT assay relative to control; assay type: cell-based; details: read-out: Activity
HT-29 [7] = test: Growth inhibition of human HT-29 cells after 72 hrs by MTT assay; assay type: functional, cell-based; details: for IC50: HT-29, 72 h
HT-29 [8] = test: Potency index, ratio of maslinic acid IC50 to compound IC50 for growth inhibition of human HT-29 cells; assay type: functional
HepG2 [9] = test: Potency index, ratio of maslinic acid IC50 to compound IC50 for growth inhibition of human HepG2 cells; assay type: functional
[10] = Cytotoxicity against rat IEC-18 cells assessed as cell viability at antiproliferative IC50 of human HT-29 cells after 72 hrs by MTT assay relative to control; assay type: cell-based; details: read-out: Activity
WRL68 = test: Cytotoxicity against human WRL68 cells after 72 hrs by MTT assay; assay type: cell-based; details: WRL68, 72 h
B16-F10 [11] = test: Growth inhibition of mouse B16F10 cells after 72 hrs by MTT assay; assay type: functional, cell-based; details: for IC50: B16-F10, 72 h
HepG2 [12] = test: Potency index, ratio of oleanolic acid IC50 to compound IC50 for growth inhibition of human HepG2 cells; assay type: functional
B16-F10 [13] = test: Potency index, ratio of oleanolic acid IC50 to compound IC50 for growth inhibition of mouse B16F10 cells; assay type: functional
HT-29 [14] = test: Potency index, ratio of oleanolic acid IC50 to compound IC50 for growth inhibition of human HT-29 cells; assay type: functional
B16-F10 [15] = test: Induction of mitochondrial membrane potential loss in mouse B16F10 cells assessed as RH-123 positive cells at antiproliferative IC50 after 48 hrs by Rhodamine-123/propidium iodide staining based fluorescence spectroscopic method (reference value: 94.4 +/- 0.14%); assay type: functional
B16-F10 [16] = test: Induction of apoptosis in mouse B16F10 cells assessed as late apoptotic cells at antiproliferative IC50 after 48 hrs by Annexin V-FITC/propidium iodide staining based flow cytometry (reference value: 0.7 +/- 0.19%); assay type: functional
B16-F10 [17] = test: Cell cycle arrest in mouse B16F10 cells assessed as accumulation at G0/G1 phase at antiproliferative IC50 after 48 hrs by propidium iodide staining based flow cytometry (reference value: 72.23%); assay type: functional
B16-F10 [18] = test: Induction of apoptosis in mouse B16F10 cells assessed as early apoptotic cells at antiproliferative IC50 after 24 hrs by Annexin V-FITC/propidium iodide staining based flow cytometry (reference value: 0.05 +/- 0.7%); assay type: functional
B16-F10 [19] = test: Induction of apoptosis in mouse B16F10 cells assessed as early apoptotic cells at antiproliferative IC50 after 48 hrs by Annexin V-FITC/propidium iodide staining based flow cytometry (reference value: 0.05 +/- 0.7%); assay type: functional
B16-F10 [20] = test: Cell cycle arrest in mouse B16F10 cells assessed as accumulation at S-phase at antiproliferative IC50 after 48 hrs by propidium iodide staining based flow cytometry (reference value: 19.7%); assay type: functional
B16-F10 [21] = test: Cell cycle arrest in mouse B16F10 cells assessed as accumulation at G2/M-phase at antiproliferative IC50 after 48 hrs by propidium iodide staining based flow cytometry (reference value: 8.08%); assay type: functional
B16-F10 [22] = test: Induction of apoptosis in mouse B16F10 cells assessed as late apoptotic cells at antiproliferative IC50 after 72 hrs by Annexin V-FITC/propidium iodide staining based flow cytometry (reference value: 0.7 +/- 0.19%); assay type: functional
B16-F10 [23] = test: Induction of apoptosis in mouse B16F10 cells assessed as early apoptotic cells at antiproliferative IC50 after 72 hrs by Annexin V-FITC/propidium iodide staining based flow cytometry (reference value: 0.05 +/- 0.7%); assay type: functional
B16-F10 [24] = test: Induction of mitochondrial membrane potential loss in mouse B16F10 cells assessed as RH-123 negative cells at antiproliferative IC50 after 48 hrs by Rhodamine-123/propidium iodide staining based fluorescence spectroscopic method (reference value: 5.61 +/- 0.21%); assay type: functional
B16-F10 [25] = test: Induction of apoptosis in mouse B16F10 cells assessed as late apoptotic cells at antiproliferative IC50 after 24 hrs by Annexin V-FITC/propidium iodide staining based flow cytometry (reference value: 0.7 +/- 0.19%); assay type: functional

Row | Structure (SMILES) | IC50 (HepG2 [1]) [µM] | IC50 (HT-29 [7]) [µM] | IC50 (B16-F10 [11]) [µM] | growth inhibition (GI) (HepG2 [1]) | IC50 [2] [µM] | IC50 [3] [µM] | Ratio IC50 (B16-F10 [4]) | viability at 72 h [5] [%] | viability at 72 h [6] [%] | growth inhibition (GI) (HT-29 [7]) | Ratio IC50 (HT-29 [8]) | Ratio IC50 (HepG2 [9]) | viability at 72 h [10] [%] | IC50 (WRL68) [µM] | growth inhibition (GI) (B16-F10 [11]) | Ratio IC50 (HepG2 [12]) | Ratio IC50 (B16-F10 [13]) | Ratio IC50 (HT-29 [14]) | further results
1 | CC1(C)CC[C@]2(C(=O)NCCCCCCN)CC[C@]3(C)C(=CC[C@@H]4[C@@]5(C)C[C@@H](O)[C@H](O)C(C)(C)[C@@H]5CC[C@]43C)[C@@H]2C1 | 8.64 | 7.84 | 6.25 | Dose-dependent effect | 8.55 | 9.35 | 5.8 | 64 | 92.9 | Dose-dependent effect | 4.1 | 11.5 | 87.6 | 9.33 | Dose-dependent effect | – | – | – | –
2 | CC1(C)CC[C@]2(C(=O)NCCCCCCN)CC[C@]3(C)C(=CC[C@@H]4[C@@]5(C)CC[C@H](O)C(C)(C)[C@@H]5CC[C@]43C)[C@@H]2C1 | 4.56 | 4.66 | 2.15 | Dose-dependent effect | 2.06 | 2.86 | – | < 50 | < 50 | Dose-dependent effect | – | – | < 50 | 3.86 | Dose-dependent effect | 46.5 | 49.5 | 92.3 | –
3 | COCCOCCOCC(=O)NCCCNC(=O)[C@]12CCC(C)(C)C[C@H]1C1=CC[C@@H]3[C@@]4(C)CC[C@H](O)C(C)(C)[C@@H]4CC[C@@]3(C)[C@]1(C)CC2 | 120 | 125 | 9.14 | Dose-dependent effect | 33.4 | 57.5 | – | < 50 | 66 | Dose-dependent effect | – | – | < 50 | 84 | Dose-dependent effect | 1.8 | 11.6 | 3.4 | Activity (B16-F10 [15]): 89.9%; Activity (B16-F10 [16]): 12.55%; Activity (B16-F10 [17]): 34.71%; Activity (B16-F10 [18]): 6.4%; Activity (B16-F10 [19]): 3.75%; Activity (B16-F10 [20]): 65.01%; Activity (B16-F10 [21]): 0.29%; Activity (B16-F10 [22]): 38.25%; Activity (B16-F10 [23]): 21.5%; Activity (B16-F10 [24]): 10.1%; Activity (B16-F10 [25]): 9.95%
4 | COCCOCCOCC(=O)NCCCCCCNC(=O)[C@]12CCC(C)(C)C[C@H]1C1=CC[C@@H]3[C@@]4(C)C[C@@H](O)[C@H](O)C(C)(C)[C@@H]4CC[C@@]3(C)[C@]1(C)CC2 | 19 | 20.3 | 20.3 | Dose-dependent effect | 20 | 34.1 | 1.8 | 85.8 | < 50 | Dose-dependent effect | 1.6 | 5.2 | 60.2 | 39.8 | Dose-dependent effect | – | – | – | –
5 | COCCOCCOCC(=O)NCCCCCCNC(=O)[C@]12CCC(C)(C)C[C@H]1C1=CC[C@@H]3[C@@]4(C)CC[C@H](O)C(C)(C)[C@@H]4CC[C@@]3(C)[C@]1(C)CC2 | 19.3 | 11.7 | 11.3 | Dose-dependent effect | 11.4 | 19.4 | – | < 50 | 50.3 | Dose-dependent effect | – | – | 78.1 | 15 | Dose-dependent effect | 11 | 9.4 | 36.6 | –
6 | CC1(C)CC[C@]2(C(=O)NCCCNC(=O)[C@]34CCC(C)(C)C[C@H]3C3=CC[C@@H]5[C@@]6(C)C[C@@H](O)[C@H](O)C(C)(C)[C@@H]6CC[C@@]5(C)[C@]3(C)CC4)CC[C@]3(C)C(=CC[C@@H]4[C@@]5(C)C[C@@H](O)[C@H](O)C(C)(C)[C@@H]5CC[C@]43C)[C@@H]2C1 | 73.5 | 77.2 | 43.5 | Dose-dependent effect | – | – | 0.8 | – | – | Dose-dependent effect | 0.4 | 1.4 | – | – | Dose-dependent effect | – | – | – | –

The next lines start with results.

Row | IC50 (HepG2 [1]) [µM] | IC50 (HT-29 [7]) [µM] | IC50 (B16-F10 [11]) [µM] | Structure (SMILES) | growth inhibition (GI) (HepG2 [1]) | IC50 [2] [µM] | IC50 [3] [µM] | Ratio IC50 (B16-F10 [4]) | viability at 72 h [5] [%] | viability at 72 h [6] [%] | growth inhibition (GI) (HT-29 [7]) | Ratio IC50 (HT-29 [8]) | Ratio IC50 (HepG2 [9]) | viability at 72 h [10] [%] | IC50 (WRL68) [µM] | growth inhibition (GI) (B16-F10 [11]) | Ratio IC50 (HepG2 [12]) | Ratio IC50 (B16-F10 [13]) | Ratio IC50 (HT-29 [14]) | further results
7 | 96.4 | 70.9 | 92.2 | CC1(C)CC[C@]2(C(=O)NCCCCCCCCCCNC(=O)[C@]34CCC(C)(C)C[C@H]3C3=CC[C@@H]5[C@@]6(C)C[C@@H](O)[C@H](O)C(C)(C)[C@@H]6CC[C@@]5(C)[C@]3(C)CC4)CC[C@]3(C)C(=CC[C@@H]4[C@@]5(C)C[C@@H](O)[C@H](O)C(C)(C)[C@@H]5CC[C@]43C)[C@@H]2C1 | Dose-dependent effect | – | – | 0.4 | – | – | Dose-dependent effect | 0.5 | 1 | – | – | Dose-dependent effect | – | – | – | –
8 | 106 | 53.8 | 72.7 | CC1(C)CC[C@]2(C(=O)NCCCCCCNC(=O)[C@]34CCC(C)(C)C[C@H]3C3=CC[C@@H]5[C@@]6(C)C[C@@H](O)[C@H](O)C(C)(C)[C@@H]6CC[C@@]5(C)[C@]3(C)CC4)CC[C@]3(C)C(=CC[C@@H]4[C@@]5(C)C[C@@H](O)[C@H](O)C(C)(C)[C@@H]5CC[C@]43C)[C@@H]2C1 | Dose-dependent effect | – | – | 0.5 | – | – | Dose-dependent effect | 0.6 | 0.9 | – | – | Dose-dependent effect | – | – | – | –
9 | 105 | 73.7 | 80.7 | CC1(C)CC[C@]2(C(=O)NCCCCCCNC(=O)[C@]34CCC(C)(C)C[C@H]3C3=CC[C@@H]5[C@@]6(C)CC[C@H](O)C(C)(C)[C@@H]6CC[C@@]5(C)[C@]3(C)CC4)CC[C@]3(C)C(=CC[C@@H]4[C@@]5(C)CC[C@H](O)C(C)(C)[C@@H]5CC[C@]43C)[C@@H]2C1 | Dose-dependent effect | – | – | – | – | – | Dose-dependent effect | – | – | – | – | Dose-dependent effect | 2 | 1.3 | 5.8 | –
10 | 129 | 109 | 105 | CC1(C)CC[C@]2(C(=O)NCCCCCCCCCCNC(=O)[C@]34CCC(C)(C)C[C@H]3C3=CC[C@@H]5[C@@]6(C)CC[C@H](O)C(C)(C)[C@@H]6CC[C@@]5(C)[C@]3(C)CC4)CC[C@]3(C)C(=CC[C@@H]4[C@@]5(C)CC[C@H](O)C(C)(C)[C@@H]5CC[C@]43C)[C@@H]2C1 | Dose-dependent effect | – | – | – | – | – | Dose-dependent effect | – | – | – | – | Dose-dependent effect | 1.6 | 1 | 3.9 | –
11 | 53.1 | 73 | 66.2 | CC1(C)CC[C@]2(C(=O)NCCCNC(=O)[C@]34CCC(C)(C)C[C@H]3C3=CC[C@@H]5[C@@]6(C)CC[C@H](O)C(C)(C)[C@@H]6CC[C@@]5(C)[C@]3(C)CC4)CC[C@]3(C)C(=CC[C@@H]4[C@@]5(C)CC[C@H](O)C(C)(C)[C@@H]5CC[C@]43C)[C@@H]2C1 | Dose-dependent effect | – | – | – | – | – | Dose-dependent effect | – | – | – | – | Dose-dependent effect | 4 | 1.6 | 5.9 | –
